Where “and” joins values, the source holds several entries; their conditions need not be identical. Equal entries are not always repeated. Toxic doses and inconclusive results are not listed.
Tested on: P388 leukemia ip, CD2F1 mice, survival T/C
Assay: NCI In Vivo Anticancer Drug Screen. Data for tumor model P388 Leukemia (intraperitoneal) in CD2F1 (CDF1) mice
Conditions: endpoint: median survival time, higher = longer survival
Outline: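 Mice carrying the transplanted tumor received test compound or vehicle. Survival was recorded in each group, and the value is the treated-group measurement divided by that of the vehicle-treated control group.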

In the case of COc1cc2c[n+](C)c3c4cc5c(cc4ccc3c2cc1OC)OCO5, the T/C (dose: 0.5 mg/kg/injection, schedule: Q01DX005 (ip), vehicle: saline) is reported as 106 % of control, the T/C (dose: 1.0 mg/kg/injection, schedule: Q01DX005 (ip), vehicle: saline) is reported as 118 % of control and the T/C (dose: 1.25 mg/kg/injection, schedule: Q01DX009 (ip), vehicle: DMSO) is reported as 124 % of control. The T/C (dose: 2.0 mg/kg/injection, schedule: Q01DX005 (ip), vehicle: saline) was 115 % of control, the T/C (dose: 2.0 mg/kg/injection, schedule: Q03HX008 (ip), vehicle: water) was 109 % of control and the T/C (dose: 2.0 mg/kg/injection, schedule: Q03HX016 (ip), vehicle: water) was 121 % of control. The T/C (dose: 2.0 mg/kg/injection, schedule: Q03HX024 (ip), vehicle: saline with Tween-80) was 150 % of control, the T/C (dose: 4.0 mg/kg/injection, schedule: Q01DX009 (ip), vehicle: saline) was 152 % of control and the T/C (dose: 4.0 mg/kg/injection, schedule: Q01DX009 (sc), vehicle: water) was 97 % of control. For the same molecule, the T/C (dose: 4.0 mg/kg/injection, schedule: Q03HX008 (ip), vehicle: water) was 114 % of control, the T/C (dose: 4.0 mg/kg/injection, schedule: Q03HX016 (ip), vehicle: water) was 119 % of control and the T/C (dose: 5.0 mg/kg/injection, schedule: Q01DX009 (ip), vehicle: DMSO) was 153 % of control. For the same molecule, the T/C (dose: 8.0 mg/kg/injection, schedule: Q01DX009 (ip), vehicle: saline with Tween-80) was 166 % of control, the T/C (dose: 8.0 mg/kg/injection, schedule: Q01DX009 (ip), vehicle: saline) was 152 % of control and the T/C (dose: 8.0 mg/kg/injection, schedule: Q01DX009 (oral), vehicle: water) was 102 % of control. For the same molecule, the T/C (dose: 8.0 mg/kg/injection, schedule: Q01DX009 (sc), vehicle: saline with Tween-80) was 96 % of control, the T/C (dose: 8.0 mg/kg/injection, schedule: Q01DX009 (sc), vehicle: water) was 97 % of control and the T/C (dose: 8.0 mg/kg/injection, schedule: Q03HX008 (ip), vehicle: water) was 87 % of control. The T/C (dose: 8.0 mg/kg/injection, schedule: Q03HX016 (ip), vehicle: saline with Tween-80) was 153 % of control, the T/C (dose: 8.0 mg/kg/injection, schedule: Q03HX016 (ip), vehicle: water) was 92 % of control and the T/C (dose: 8.0 mg/kg/injection, schedule: Q03HX024 (ip), vehicle: saline with Tween-80) was 165 % of control. For the same molecule, the T/C (dose: 8.0 mg/kg/injection, schedule: Q04DX003 (ip), vehicle: water) was 113 % of control, the T/C (dose: 10.0 mg/kg/injection, schedule: Q01DX009 (ip), vehicle: DMSO) was 153 % of control and 155 % of control and the T/C (dose: 16.0 mg/kg/injection, schedule: Q01DX001 (ip), vehicle: water) was 106 % of control. The T/C (dose: 16.0 mg/kg/injection, schedule: Q01DX001 (oral), vehicle: water) was 103 % of control, the T/C (dose: 16.0 mg/kg/injection, schedule: Q01DX001 (sc), vehicle: water) was 98 % of control and the T/C (dose: 16.0 mg/kg/injection, schedule: Q01DX009 (ip), vehicle: saline with Tween-80) was 157 % of control. The T/C (dose: 16.0 mg/kg/injection, schedule: Q01DX009 (ip), vehicle: saline) was 171 % of control, the T/C (dose: 16.0 mg/kg/injection, schedule: Q01DX009 (oral), vehicle: water) was 94 % of control and the T/C (dose: 16.0 mg/kg/injection, schedule: Q01DX009 (sc), vehicle: saline with Tween-80) was 97 % of control. For the same molecule, the T/C (dose: 16.0 mg/kg/injection, schedule: Q03HX008 (ip), vehicle: saline with Tween-80) was 167 % of control, the T/C (dose: 16.0 mg/kg/injection, schedule: Q04DX003 (ip), vehicle: water) was 119 % of control and the T/C (dose: 16.0 mg/kg/injection, schedule: Q08DX002 (ip), vehicle: water) was 112 % of control. For the same molecule, the T/C (dose: 20.0 mg/kg/injection, schedule: Q01DX009 (ip), vehicle: DMSO) was 155 % of control and 163 % of control and 190 % of control, the T/C (dose: 20.0 mg/kg/injection, schedule: Q01DX009 (ip), vehicle: saline) was 191 % of control and the T/C (dose: 25.0 mg/kg/injection, schedule: Q01DX009 (ip), vehicle: saline with Tween-80) was 114 % of control. The T/C (dose: 25.0 mg/kg/injection, schedule: Q01DX009 (ip), vehicle: water) was 100 % of control and 87 % of control, the T/C (dose: 32.0 mg/kg/injection, schedule: Q01DX001 (ip), vehicle: water) was 102 % of control and the T/C (dose: 32.0 mg/kg/injection, schedule: Q01DX001 (oral), vehicle: water) was 103 % of control. For the same molecule, the T/C (dose: 32.0 mg/kg/injection, schedule: Q01DX001 (sc), vehicle: saline with Tween-80) was 100 % of control, the T/C (dose: 32.0 mg/kg/injection, schedule: Q01DX001 (sc), vehicle: water) was 101 % of control and the T/C (dose: 32.0 mg/kg/injection, schedule: Q01DX005 (ip), vehicle: saline) was 168 % of control. The T/C (dose: 32.0 mg/kg/injection, schedule: Q01DX009 (ip), vehicle: saline with Tween-80) was 100 % of control, the T/C (dose: 32.0 mg/kg/injection, schedule: Q01DX009 (ip), vehicle: water) was 185 % of control and the T/C (dose: 32.0 mg/kg/injection, schedule: Q01DX009 (oral), vehicle: saline with Tween-80) was 107 % of control. For the same molecule, the T/C (dose: 32.0 mg/kg/injection, schedule: Q01DX009 (oral), vehicle: water) was 93 % of control, the T/C (dose: 32.0 mg/kg/injection, schedule: Q01DX009 (sc), vehicle: saline with Tween-80) was 92 % of control and the T/C (dose: 32.0 mg/kg/injection, schedule: Q03HX008 (ip), vehicle: saline with Tween-80) was 161 % of control. The T/C (dose: 32.0 mg/kg/injection, schedule: Q03HX016 (ip), vehicle: saline with Tween-80) was 100 % of control, the T/C (dose: 32.0 mg/kg/injection, schedule: Q04DX003 (ip), vehicle: other) was 154 % of control and the T/C (dose: 32.0 mg/kg/injection, schedule: Q04DX003 (ip), vehicle: water) was 119 % of control. For the same molecule, the T/C (dose: 32.0 mg/kg/injection, schedule: Q08DX002 (ip), vehicle: water) was 113 % of control, the T/C (dose: 40.0 mg/kg/injection, schedule: Q01DX009 (ip), vehicle: saline) was 105 % of control and 96 % of control and the T/C (dose: 64.0 mg/kg/injection, schedule: Q01DX001 (ip), vehicle: water) was 117 % of control. For the same molecule, the T/C (dose: 64.0 mg/kg/injection, schedule: Q01DX001 (oral), vehicle: water) was 102 % of control, the T/C (dose: 64.0 mg/kg/injection, schedule: Q01DX001 (sc), vehicle: saline with Tween-80) was 98 % of control and the T/C (dose: 64.0 mg/kg/injection, schedule: Q01DX001 (sc), vehicle: water) was 95 % of control. For the same molecule, the T/C (dose: 64.0 mg/kg/injection, schedule: Q01DX009 (oral), vehicle: saline with Tween-80) was 100 % of control, the T/C (dose: 64.0 mg/kg/injection, schedule: Q01DX009 (oral), vehicle: water) was 101 % of control and the T/C (dose: 64.0 mg/kg/injection, schedule: Q01DX009 (sc), vehicle: saline with Tween-80) was 87 % of control. For the same molecule, the T/C (dose: 64.0 mg/kg/injection, schedule: Q04DX003 (ip), vehicle: other) was 150 % of control and 181 % of control, the T/C (dose: 64.0 mg/kg/injection, schedule: Q04DX003 (ip), vehicle: saline with Tween-80) was 151 % of control and the T/C (dose: 64.0 mg/kg/injection, schedule: Q08DX002 (ip), vehicle: water) was 115 % of control. For the same molecule, the T/C (dose: 100.0 mg/kg/injection, schedule: Q04DX002 (ip), vehicle: Klucel (hydroxypropylcellulose) (HPC)) was 154 % of control, the T/C (dose: 120.0 mg/kg/injection, schedule: Q04DX003 (ip), vehicle: distilled water + Tween-80) was 99 % of control and the T/C (dose: 128.0 mg/kg/injection, schedule: Q01DX001 (oral), vehicle: water) was 95 % of control. For the same molecule, the T/C (dose: 128.0 mg/kg/injection, schedule: Q01DX001 (sc), vehicle: saline with Tween-80) was 97 % of control, the T/C (dose: 128.0 mg/kg/injection, schedule: Q01DX009 (oral), vehicle: saline with Tween-80) was 100 % of control and the T/C (dose: 128.0 mg/kg/injection, schedule: Q01DX009 (oral), vehicle: water) was 103 % of control. The T/C (dose: 128.0 mg/kg/injection, schedule: Q01DX009 (sc), vehicle: saline with Tween-80) was 88 % of control, the T/C (dose: 128.0 mg/kg/injection, schedule: Q04DX003 (ip), vehicle: other) was 107 % of control and the T/C (dose: 128.0 mg/kg/injection, schedule: Q04DX003 (ip), vehicle: saline with Tween-80) was 166 % of control. For the same molecule, the T/C (dose: 128.0 mg/kg/injection, schedule: Q08DX002 (ip), vehicle: saline with Tween-80) was 155 % of control, the T/C (dose: 200.0 mg/kg/injection, schedule: Q04DX002 (ip), vehicle: Klucel (hydroxypropylcellulose) (HPC)) was 105 % of control and 122 % of control and the T/C (dose: 256.0 mg/kg/injection, schedule: Q01DX001 (ip), vehicle: saline with Tween-80) was 161 % of control. For the same molecule, the T/C (dose: 256.0 mg/kg/injection, schedule: Q01DX001 (oral), vehicle: saline with Tween-80) was 104 % of control, the T/C (dose: 256.0 mg/kg/injection, schedule: Q01DX001 (sc), vehicle: saline with Tween-80) was 106 % of control and the T/C (dose: 256.0 mg/kg/injection, schedule: Q01DX009 (oral), vehicle: saline with Tween-80) was 100 % of control. For the same molecule, the T/C (dose: 256.0 mg/kg/injection, schedule: Q08DX002 (ip), vehicle: saline with Tween-80) was 160 % of control, the T/C (dose: 400.0 mg/kg/injection, schedule: Q04DX002 (ip), vehicle: Klucel (hydroxypropylcellulose) (HPC)) was 87 % of control and the T/C (dose: 512.0 mg/kg/injection, schedule: Q01DX001 (oral), vehicle: saline with Tween-80) was 106 % of control. The T/C (dose: 512.0 mg/kg/injection, schedule: Q01DX001 (sc), vehicle: saline with Tween-80) was 97 % of control, the T/C (dose: 512.0 mg/kg/injection, schedule: Q01DX009 (oral), vehicle: saline with Tween-80) was 97 % of control and the T/C (dose: 1024.0 mg/kg/injection, schedule: Q01DX001 (oral), vehicle: saline with Tween-80) was 100 % of control. The T/C (dose: 2048.0 mg/kg/injection, schedule: Q01DX001 (oral), vehicle: saline with Tween-80) was 102 % of control.
